Assay results published in patent US8835124B2, “Method for treating cancer with agents that bind phosphorylated CDC27” (The Nemours Foundation, priority 2011, dated 2014).

Key:
NT2 and MDCK cells = experiment: Cell cycle progression after release from thymidine/nocodazole block; type: cell-based; details: different concentrations of curcumin
Protocol: For analysis of cell cycle profiles after mitotic block, cells were synchronized with 2 mM thymidine for 24 hours. The block was released for 3 hours and cells were arrested in prometaphase with 100 nM nocodazole for 12 hours. For G1/S arrest, cells were synchronized for 18 hours with 2 mM thymidine, released for 9 hours, followed by a second thymidine arrest for 18 hours. The block was then released in the presence of DMSO or curcumin as indicated and the cells were processed as described above.
NT2 and MDCK cells were arrested with thymidine/nocodazole treatment. […] DNA contents were analyzed for cell cycle progression. The data shown in FIG. 7 are expressed as mean±SEM of three independent experiments.

MDCK cells = experiment: LDH release cytotoxicity assay; type: cell-based; details: 24 hours, 0, 5, 10 and 20 μM; low phosphorylated Cdc27
Protocol: Lactate dehydrogenase (LDH) levels as a measure of cell death were determined using the Non-radioactive Cytotoxicity kit (Promega, Madison, Wis.) according to manufacturer's instructions. […] Cell debris was removed by centrifugation. Viable cell LDH was collected from cells lysed by freezing for 15 minutes at −70° C. followed by thawing at 37° C. The medium was collected and cleared from cell debris by centrifugation. The relative release of LDH was determined as the ratio of released LDH versus total LDH from viable cells.

Cdc27 [1] = biological target: T1, Cdc27 (Homo sapiens, UniProt P30260); experiment: Cdc27 immunoblot, molecular weight shift (crosslinking) in treated DAOY cells; type: cell-based
T1 construct: endogenous in cells; host or cells: DAOY medulloblastoma cells
Protocol: Cell lysates were prepared in a buffer containing 20 mM Iris (pH 7.5), 150 mM NaCl, 1 mM EDTA, 1 mM EGTA, 0.1% Triton X-100, 2.5 mM sodium pyrophosphate, 1 mM β-glycerol phosphate, 1 mM sodium vanadate, 1 mM phenylmethylsulfonyl fluoride and 5 μg/ml of antipapain, leupeptin and pepstatin (protease inhibitor cocktail). Protein concentrations were determined by the Dc protein assay (Bio-Rad, Hercules, Calif.). Equal amounts of protein were resolved by SDS-PAGE and transferred to nitrocellulose. The membranes were blocked in 5% non-fat milk in Tris-buffered saline with 0.1% Tween-20 (TBST). Primary antibodies diluted in 5% bovine serum albumin/TBST were incubated overnight at 4° C. and HRP-conjugated secondary antibodies in 5% non-fat milk/TBST for 2 hours at room temperature. Protein bands were visualized by Enhanced Chemiluminescence Plus (GE Healthcare, Piscataway, N.J.).

Cdc27 [2] = biological target: T1, Cdc27; experiment: Pull-down from DAOY cell lysates with curcumin-bound Sepharose beads; type: binding; details: two independent bead preparations, vs control beads
Protocol: After washing, unoccupied binding sites were blocked with 1 M ethanolamine by overnight incubation. Low (0.1 M acetate buffer, pH 4) and high (0.1 M Tris-HCl, pH 8, 0.5 M NaCl) pH buffers were used each three times to wash and equilibrate the beads. Control beads were prepared in parallel with curcumin-coupled beads but curcumin was omitted. DAOY cell lysates were prepared in a lysis buffer of 100 mM HEPES, pH 7.6, 300 mM NaCl, 0.1% Triton X-100, 2 mM EDTA, 2 mM EGTA supplemented with phosphatase and protease inhibitors. 500 μg of protein was mixed with 20 μl of curcumin-coupled Sepharose beads and incubated for 3 hours at 4° C. After washing bound proteins were eluted with 1×SDS-PAGE sample buffer and processed for immunoblotting.
DAOY cell lysates were incubated with curcumin-bound Sepharose beads and then subjected to SDS-PAGE and immunoblotting with Cdc27. A BubR1 immunoblot was included as control for non-specific binding. […] The cell lysates were separated by SDS-PAGE and immunoblotted for Cdc27. […] Data represent mean±SEM of three independent experiments.

Cdc27 [3] = experiment: Cdc27 immunoblot of cell lines after curcumin treatment; type: cell-based; details: 20 μM curcumin for 0, 4, 8 and 24 hours; DAOY, NT2, D283 Med, D341 Med, HCT116, HT1376, RT4, MDCK
Protocol: Cell lysates were prepared in a buffer containing 20 mM Tris (pH 7.5), 150 mM NaCl, 1 mM EDTA, 1 mM EGTA, 0.1% Triton X-100, 2.5 mM sodium pyrophosphate, 1 mM β-glycerol phosphate, 1 mM sodium vanadate, 1 mM phenylmethylsulfonyl fluoride and 5 μg/ml of antipapain, leupeptin and pepstatin (protease inhibitor cocktail). Protein concentrations were determined by the Dc protein assay (Bio-Rad, Hercules, Calif.). Equal amounts of protein were resolved by SDS-PAGE and transferred to nitrocellulose. The membranes were blocked in 5% non-fat milk in Tris-buffered saline with 0.1% […] (TBST). Primary antibodies diluted in 5% bovine serum albumin/TBST were incubated overnight at 4° C. and HRP-conjugated secondary antibodies in 5% non-fat milk/TBST for 2 hours at room temperature. Protein bands were visualized by Enhanced Chemiluminescence Plus (GE Healthcare, Piscataway, N.J.).
The cell lines DAOY, NT2, D283 Med, D341 Med (brain); HCT116 (colon); HT1376, RT4 (bladder); MDCK (kidney) were screened for Cdc27 phosphorylation by immunoblot of Cdc27. […] Actin immunoblot is shown as loading control.
Arrows indicate crosslinked Cdc27, while arrowheads show phosphorylated Cdc27. Equal amounts of protein were used as shown by actin immunoblot.

APC/C = biological target: T2, APC/C (Homo sapiens, UniProt P30260); experiment: In vitro APC assay (ubiquitin ligase activity on cyclin B); type: biochemical; details: DAOY released from G2/M block with 20 μM or 40 μM curcumin; two hours vs one hour of release
T2 construct: Cell pellets of control and curcumin-treated DAOY cells were snap frozen in liquid nitrogen; endogenous in cells; host or cells: DAOY cell lysate, 30 μg total protein
Protocol: In vitro APC assays were performed as described (Rajasekaran et al., Molecular Cancer Therapeutics 7(7); 2142-2151 (2008) using an in vitro transcribed and translated N-terminal fragment of cyclin B1 (cyclin B1-N1-102) as substrate, ^35S-methionine labeled cyclin B1-N1-102 was obtained using the TNT quick-coupled Transcription/Translation system (Promega, Madison, Wis.). Cell pellets of control and curcumin-treated DAOY cells were snap frozen in liquid nitrogen. The cell pellets were resuspended in an ice-cold hypotonic buffer (20 mM Hepes pH 7.6, 20 mM NaF, 1.5 mM MgCl2, 1 mM DTT, 5 mM KCl, 20 mM β-glycerophosphate, 250 μM NaVO3, 1 mM PMSF, and EDTA-free protease inhibitors) and incubated for 30 minutes on ice. The lysates were briefly homogenized and cleared by a 1 hour centrifugation at 13,000 rpm in a micro centrifuge. For the assay, 30 μg of total protein were added to reaction buffer containing 20 mM Tris pH 7.5, 20 mM NaCl, 5 mM MgCl2, 5 mM ATP-γ-S, 20 μg/ml MG-132, 0.5 μg UbcH10, 20 μM ubiquitin, 1 μm ubiquitin aldehyde, protease inhibitor, and 2 μl of in vitro translated ^35S-cyclin B1-N1-102 and incubated at 37° C. for 60 minutes. The reactions were stopped by adding sample buffer and proteins were separated by SDS-PAGE on a 4-15% gradient gel. To visualize the bands, the gel was incubated and enhanced with salicylate, dried, and then subjected to autoradiography. […]

T1 sequence (P30260 1-830 isoform P30260-2): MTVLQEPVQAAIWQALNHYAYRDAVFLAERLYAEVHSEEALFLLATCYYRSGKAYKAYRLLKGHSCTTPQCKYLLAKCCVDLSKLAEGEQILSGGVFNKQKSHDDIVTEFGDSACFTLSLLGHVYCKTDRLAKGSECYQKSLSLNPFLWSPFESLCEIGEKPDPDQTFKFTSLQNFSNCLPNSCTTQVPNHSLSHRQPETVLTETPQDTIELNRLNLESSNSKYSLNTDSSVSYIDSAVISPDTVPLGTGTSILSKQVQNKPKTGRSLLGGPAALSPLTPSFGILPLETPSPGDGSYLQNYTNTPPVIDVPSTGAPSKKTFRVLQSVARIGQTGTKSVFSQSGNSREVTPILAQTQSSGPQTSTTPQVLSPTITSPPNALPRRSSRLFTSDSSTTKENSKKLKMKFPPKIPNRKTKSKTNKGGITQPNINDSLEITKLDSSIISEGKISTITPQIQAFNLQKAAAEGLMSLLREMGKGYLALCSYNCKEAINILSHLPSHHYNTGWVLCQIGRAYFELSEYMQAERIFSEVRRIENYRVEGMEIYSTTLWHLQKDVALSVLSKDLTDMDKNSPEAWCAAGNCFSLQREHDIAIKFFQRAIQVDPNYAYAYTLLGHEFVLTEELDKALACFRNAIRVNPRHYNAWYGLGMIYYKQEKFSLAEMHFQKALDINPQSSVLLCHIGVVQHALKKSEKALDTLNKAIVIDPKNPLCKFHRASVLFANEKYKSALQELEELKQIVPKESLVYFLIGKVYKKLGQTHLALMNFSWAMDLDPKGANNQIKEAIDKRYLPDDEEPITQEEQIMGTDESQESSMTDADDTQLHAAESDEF

## COc1cc(/C=C/C(=O)CC(=O)/C=C/c2ccc(O)c(OC)c2)ccc1O [Curcumin, (E,E)-1,7-bis(4-hydroxy-3-methoxyphenyl)-1,6-heptadiene-3,5-dion]
NT2 and MDCK cells
  mitotic progression after release from mitotic block: selectively blocks mitotic progression in different cell lines with phosphorylated APC3/Cdc27
MDCK cells
  sensitivity to curcumin-induced apoptosis (LDH release): almost unaffected
Cdc27 [1]; DAOY, 0, 3, 6, 9 or 24 hours
  induction of high molecular weight bands of Cdc27 (crosslinking): induces the formation of Cdc27 dimers
Cdc27 [1]; curcumin-treated DAOY cells, immunoblot
  high molecular weight (MW) band of Cdc27: approximately double the MW of Cdc27
Cdc27 [2]
  pull-down of Cdc27 by curcumin-bound Sepharose beads: pulled down Cdc27
Cdc27 [3]
  crosslinking of Cdc27 in cell lines: Only in cell lines with the phosphorylated form of Cdc27 was curcumin able to crosslink Cdc27
APC/C
  APC activity: reduced
